Calls of active or inactive are those of the source. No rule for the calls is given here.
Tested on: rodent carcinogenicity bioassays, tumor incidence
Assay: CCRIS carcinogenicity studies
Outline: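 NCI-built, expert-reviewed records of carcinogenicity and related test outcomes (mutagenicity, tumor promotion/inhibition) compiled from published and report sources, historical span 1985-2011, not updated.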

`c1ccc2c(c1)cc1ccc3cccc4ccc2c1c34` was tested, and the carcinogen call (Species: FISH, Strain/Sex: MT. SHASTA RAINBOW TROUT/MALE, FEMALE, Route: TRANSCHORIONIC INJECTION, Dose: 0, 0.09, 0.9, 9 UG IN DMSO ADMINISTERED IN OVO APPROXIMATELY 2 DAYS PRIOR TO HATCHING (STUDY DURATION: 1 YR), Dose: 0, 0.09, 0.9, 9 UG IN DMSO ADMINISTERED IN OVO APPROXIMATELY 2 DAYS PRIOR TO HATCHING (STUDY DURATION: 1 YR)) was “inactive; negative”, the carcinogen call (Species: FISH, Strain/Sex: MT. SHASTA RAINBOW TROUT/MALE, FEMALE, Route: TRANSCHORIONIC INJECTION, Dose: 0, 4.5, 9, 18 UG IN DMSO ADMINISTERED IN OVO APPROXIMATELY 2 DAYS PRIOR TO HATCHING, Dose: 0, 4.5, 9, 18 UG IN DMSO ADMINISTERED IN OVO APPROXIMATELY 2 DAYS PRIOR TO HATCHING, Tumor Site: Type of Lesion: LIVER: TUMOR) was “active; positive” and the carcinogen call (Species: FISH, Strain/Sex: RAINBOW TROUT/MALE, FEMALE, Route: INTRAPERITONEAL, Dose: 0, 1 MG IN 0.4 ML PROPYLENE GLYCOL 1/MO FOR 12 MO BEGINNING AT 10 MO OF AGE (STUDY DURATION: 18 MO), Tumor Site: Type of Lesion: LIVER: CARCINOMA) was “active; positive”. The carcinogen call (Species: FISH, Strain/Sex: RAINBOW TROUT/MALE, FEMALE, Route: ORAL, Dose: 0, 1000 PPM IN DIET FOR 18 MO (STUDY DURATION: 18 MO), Tumor Site: Type of Lesion: LIVER: CARCINOMA) was “active; positive”, the carcinogen call (Species: FISH, Strain/Sex: SHEEPSHEAD MINNOW/MALE, FEMALE, Route: IMMERSION, Dose: 0, 2, 30, 200 PPB APPROXIMATE CONCENTRATIONS ADMINISTERED 1/WK FOR 6 OR 24 HR FOR 1 OR 2 WK (STUDY DURATION: 39 WK), Dose: 0, 2, 30) was “inactive; negative” and the carcinogen call (Species: HAMSTER, Route: GAVAGE, Tumor Site: Type of Lesion: FORESTOMACH: PAPILLOMA, CARCINOMA) was “active; positive”. For the same compound, the carcinogen call (Species: HAMSTER, Route: INTRATRACHEAL, Tumor Site: Type of Lesion: LUNG) was “active; positive”, the carcinogen call (Species: HAMSTER, Route: ORAL, Dose: 500 PPM IN DIET 4 D/WK FOR UP TO 14 MO, Tumor Site: Type of Lesion: ESOPHAGUS, FORESTOMACH, INTESTINES, Tumor Site: Type of Lesion: ESOPHAGUS, FORESTOMACH, INTESTINES) was “active; positive” and the carcinogen call (Species: HAMSTER, Route: SUBCUTANEOUS, Dose: 2.5 MG, 3 MO, Tumor Site: Type of Lesion: INJECTION SITE: SARCOMA) was “active; positive”. For the same compound, the carcinogen call (Species: HAMSTER, Route: SUBCUTANEOUS, Tumor Site: Type of Lesion: INJECTION SITE: SARCOMA) was “active; positive”, the carcinogen call (Species: HAMSTER, Strain/Sex: MALE,FEMALE, Route: INTRATRACHEAL, Dose: 0.25-2 MG, 1/WK FOR 30 WK, Tumor Site: Type of Lesion: RESPIRATORY TRACT) was “active; positive” and the carcinogen call (Species: HAMSTER, Strain/Sex: SYRIAN/FEMALE, Route: INTRATRACHEAL, Dose: 0, 1 MG IN 0.1 ML PHOSPHATE BUFFER 15/WK FOR 4 MO (STUDY DURATION: 443 D), Tumor Site: Type of Lesion: TRACHEA: PAPILLOMA OR CARCINOMA) was “active; positive”. For the same compound, the carcinogen call (Species: HAMSTER, Strain/Sex: SYRIAN/MALE,FEMALE, Route: SUBCUTANEOUS, Dose: 0.0005-80 MG, 10 DOSES, Tumor Site: Type of Lesion: INJECTION SITE: SARCOMA) was “active; positive”, the carcinogen call (Species: HAMSTER, Strain/Sex: SYRIAN/MALE, Route: GAVAGE, Dose: 2-5 MG 2/WK FOR 1-11 MO, Tumor Site: Type of Lesion: STOMACH: CARCINOMA, PAPILLOMA) was “active; positive” and the carcinogen call (Species: MONKEY, Route: INTRATRACHEAL, Dose: 3-15 MG, 1/WK, Tumor Site: Type of Lesion: LUNG: SQUAMOUS CARCINOMA) was “active; positive”. The carcinogen call (Species: MONKEY, Strain/Sex: TUPAIA GLIS/MALE,FEMALE, Route: SUBCUTANEOUS, Dose: 10 MG, SINGLE DOSE, Tumor Site: Type of Lesion: INJECTION SITE: SARCOMA) was “active; positive”, the carcinogen call (Species: MOUSE, Route: SUBCUTANEOUS, Tumor Site: Type of Lesion: INJECTION SITE: SARCOMA) was “active; positive” and the carcinogen call (Species: MOUSE, Strain/Sex: A/J/MALE, Route: INTRAPERITONEAL, Dose: 0, 10, 100 MG/KG BW IN TRICAPRYLIN ONCE AT 4-5 WK OF AGE (STUDY DURATION: 7-8 MO), Dose: 0, 10, 100 MG/KG BW IN TRICAPRYLIN ONCE AT 4-5 WK OF AGE (STUDY DURATION: 7-8 MO), Tumor Site: Type of Lesion: LUNG: TUMOR) was “active; positive”. For the same compound, the carcinogen call (Species: MOUSE, Strain/Sex: B6C3F1/FEMALE, Route: ORAL, Dose: 0, 5, 25, 100 PPM IN DIET FOR 2 YR (STUDY DURATION: 2 YR), Dose: 0, 5, 25, 100 PPM IN DIET FOR 2 YR (STUDY DURATION: 2 YR), Tumor Site: Type of Lesion: FORESTOMACH: PAPILLOMA OR CARCINOMA, ESOPHAGUS: PAPILLOMA OR CARCINOMA, TONGUE: PAPILLOMA OR CARCINOMA, Tumor Site: Type of Lesion: FORESTOMACH: PAPILLOMA OR CARCINOMA, ESOPHAGUS: PAPILLOMA OR CARCINOMA, TONGUE: PAPILLOMA OR CARCINOMA) was “active; positive”, the carcinogen call (Species: MOUSE, Strain/Sex: B6C3F1/MALE, Route: INTRAPERITONEAL, Dose: 0, 0.005, 0.015 UMOL/G ONCE AT 12 DAYS OF AGE (STUDY DURATION: 10 MO), Dose: 0, 0.005, 0.015 UMOL/G ONCE AT 12 DAYS OF AGE (STUDY DURATION: 10 MO), Tumor Site: Type of Lesion: LIVER: HEPATOMA) was “active; positive” and the carcinogen call (Species: MOUSE, Strain/Sex: B6C3F1/MALE, Route: INTRAPERITONEAL, Dose: 0, 125, 250, 375 UG ADMINISTERED TO 15-DAY OLD MICE ONCE (STUDY DURATION: 52 WK), Dose: 0, 125, 250, 375 UG ADMINISTERED TO 15-DAY OLD MICE ONCE (STUDY DURATION: 52 WK), Tumor Site: Type of Lesion: LIVER: TUMOR) was “active; positive”.
